The values below come from PMC10759609, “A novel PDPN antagonist peptide CY12-RP2 inhibits melanoma growth via Wnt/β-catenin and modulates the immune cells” (Journal of Experimental & Clinical Cancer Research : CR, 2024).

Experiment [1] concerns melanoma cells. The experiment can be described thus: Melanoma cell / stimulated PBMC co-culture killing. The class given is cell-based. The following applies: PBMC ratios 0%-50%, 48 h, crystal violet. As to the method: PBMCs (Shenzhen People's Hospital. Shenzhen, China)) from a healthy donor were isolated using a density gradient centrifugation procedure. Firstly, the immune cell proportions analysis of PBMCs was measured using flow cytometry. We then investigated the effect of CY12-RP2 on the cytokines in PBMCs using ELISA assays. Briefly, PBMCs (5 × 10^5 cells/well) were cultured in 24-well plates with RPMI1640 containing 10% FBS for 24 h, and the cells were stimulated with CY12-RP2 (50 µM) for 48 h. Afterward, supernatants were collected for subsequent assays. […] The experimental results were then observed by crystal violet staining after 48 h.

The test system of experiment [2] is B16F10-Luc lung metastasis. The class given is in vivo, BALB/c mice. The following applies: 25 and 100 mg/kg i.v. every two days, 15 days. As to the method:
For pulmonary metastasis assays, 6- to 8-week-old female BALB/c mice were administered with 5 × 10^5 B16F10-Luc cells via tail vein to establish an experimental pulmonary metastasis model of melanoma. CY12-RP2 was administered to the mice intravenously at high and low doses (25 mg/kg and 100 mg/kg) every two days, and the mice were sacrificed after 15 days of treatment. Pulmonary metastases were evaluated using bioluminescence imaging on the 2nd, 5th, 10th, 15th and 20th day after B16F10-Luc cells injection. Subsequently, the BALB/c mice were sacrificed, and the organs including the heart, liver, spleen, lung, and kidney were collected and imaged for evaluation of micrometastases. The xenografts and organs were kept in a 4% paraformaldehyde solution for subsequent histological assays.

Peptide text beside a SMILES is read from it.

Turning to `CC(C)C[C@H](NC(=O)[C@H](Cc1ccc(O)cc1)NC(=O)[C@@H](N)[C@@H](C)O)C(=O)N[C@@H](CS)C(=O)N[C@H](C(=O)N[C@@H](C)C(=O)N[C@@H](CS)C(=O)N[C@@H](CC(=O)O)C(=O)N[C@@H](Cc1ccc(O)cc1)C(=O)N[C@H](C(=O)N[C@@H](Cc1c[nH]cn1)C(=O)N[C@@H](Cc1c[nH]cn1)C(=O)O)[C@@H](C)O)[C@@H](C)O` [CY12-RP2] (H-TYLCTACDYTHH-OH; N-terminus and C-terminus assumed), the “viability of tumor cells with CY12-RP2-pretreated PBMC” value in experiment [1] is given as “declined significantly”. For the same compound, in experiment [2] (bioluminescence, vs control), the pulmonary metastases entry is on record as “significantly fewer pulmonary metastases”. The “size of nodules and frequency of metastases in the lungs” value in experiment [2] (ex vivo organ bioluminescence) is listed as “significant reduction”. For the same compound, in experiment [2] (representative nodule images), the “metastatic nodules in the lung” value is on record as “significantly reduced”.
